Assays:
[1] = system: Homo sapiens; assay: AUC (0 to infinity) in healthy human plasma assessed as hydroxybupropion level at 150 mg, po co-treated with ritonavir 200 mg tid for 1 day, 300 mg bid for next 2 days measured after 48 hrs; assay type: ADME, organism-based; parameters: dose 150 mg, time infinity, route oral; details: in vivo
[2] = system: Homo sapiens; assay: AUC (0 to infinity) in healthy human plasma assessed as hydroxybupropion level at 150 mg, po co-treated with ritonavir 200 mg tid for 1 day, 300 mg bid for next 6 days, 400 mg bid upto 17 day of study measured after 48 hrs; assay type: ADME, organism-based; parameters: dose 150 mg, route oral, time infinity; details: in vivo
[3] = system: Homo sapiens; assay: Tmax in healthy human plasma assessed as hydroxybupropion level at 150 mg, po co-treated with ritonavir 200 mg tid for 1 day, 300 mg bid for next 2 days measured after 48 hrs; assay type: ADME, organism-based; details: in vivo
[4] = system: Homo sapiens; assay: Tmax in healthy human plasma assessed as hydroxybupropion level at 150 mg, po co-treated with ritonavir 200 mg tid for 1 day, 300 mg bid for next 6 days, 400 mg bid upto 17 day of study measured after 48 hrs; assay type: ADME, organism-based; details: in vivo
[5] = system: Homo sapiens; assay: AUC (0 to 72) in healthy human plasma assessed as hydroxybupropion level at 150 mg, po co-treated with ritonavir 200 mg tid for 1 day, 300 mg bid for next 2 days measured after 48 hrs; assay type: ADME, organism-based; parameters: time < 72 hr, dose 150 mg, route oral; details: in vivo, 72 h
[6] = system: Homo sapiens; assay: AUC (0 to 72) in healthy human plasma assessed as hydroxybupropion level at 150 mg, po co-treated with ritonavir 200 mg tid for 1 day, 300 mg bid for next 6 days, 400 mg bid upto 17 day of study measured after 48 hrs; assay type: ADME, organism-based; parameters: dose 150 mg, time < 72 hr, route oral; details: in vivo, 72 h
[7] = system: Homo sapiens; assay: AUC (0 to 72) in healthy human plasma assessed as (R,R)-hydroxybupropion level at 150 mg, po co-treated with ritonavir 200 mg tid for 1 day, 300 mg bid for next 2 days measured after 48 hrs by high-performance liquid chromatography-tandem mass spectrometry; assay type: ADME, organism-based; parameters: time < 72 hr, dose 150 mg, route oral; details: in vivo, 72 h
[8] = system: Homo sapiens; assay: AUC (0 to 72) in healthy human plasma assessed as (R,R)-hydroxybupropion level at 150 mg, po co-treated with ritonavir 200 mg tid for 1 day, 300 mg bid for next 6 days, 400 mg bid upto 17 day of study measured after 48 hrs by high-performance liquid chromatography-tandem mass spectrometry; assay type: ADME, organism-based; parameters: dose 150 mg, time < 72 hr, route oral; details: in vivo, 72 h
[9] = system: Homo sapiens; assay: AUC (0 to infinity) in healthy human plasma assessed as (R,R)-hydroxybupropion level at 150 mg, po co-treated with ritonavir 200 mg tid for 1 day, 300 mg bid for next 2 days measured after 48 hrs by high-performance liquid chromatography-tandem mass spectrometry; assay type: ADME, organism-based; parameters: dose 150 mg, time infinity, route oral; details: in vivo
[10] = system: Homo sapiens; assay: AUC (0 to infinity) in healthy human plasma assessed as (R,R)-hydroxybupropion level at 150 mg, po co-treated with ritonavir 200 mg tid for 1 day, 300 mg bid for next 6 days, 400 mg bid upto 17 day of study measured after 48 hrs by high-performance liquid chromatography-tandem mass spectrometry; assay type: ADME, organism-based; parameters: dose 150 mg, time infinity, route oral; details: in vivo
[11] = system: Homo sapiens; assay: Tmax in healthy human plasma assessed as (R,R)-hydroxybupropion level at 150 mg, po co-treated with ritonavir 200 mg tid for 1 day, 300 mg bid for next 2 days measured after 48 hrs by high-performance liquid chromatography-tandem mass spectrometry; assay type: ADME, organism-based; details: in vivo
[12] = system: Homo sapiens; assay: (§1) Tmax in healthy human plasma assessed as (R,R)-hydroxybupropion level at 150 mg, po co-treated with ritonavir 200 mg tid for 1 day, 300 mg bid for next 6 days, 400 mg bid upto 17 day of study measured after 48 hrs by high-performance liquid chromatography-tandem mass spectrometry; assay type: ADME, organism-based; details: in vivo
[13] = system: Homo sapiens; assay: AUC (0 to 72) in healthy human plasma assessed as (S,S)-hydroxybupropion level at 150 mg, po co-treated with ritonavir 200 mg tid for 1 day, 300 mg bid for next 2 days measured after 48 hrs by high-performance liquid chromatography-tandem mass spectrometry; assay type: ADME, organism-based; parameters: dose 150 mg, time < 72 hr, route oral; details: in vivo, 72 h
[14] = system: Homo sapiens; assay: AUC (0 to 72) in healthy human plasma assessed as (S,S)-hydroxybupropion level at 150 mg, po co-treated with ritonavir 200 mg tid for 1 day, 300 mg bid for next 6 days, 400 mg bid upto 17 day of study measured after 48 hrs by high-performance liquid chromatography-tandem mass spectrometry; assay type: ADME, organism-based; parameters: dose 150 mg, time < 72 hr, route oral; details: in vivo, 72 h
[15] = system: Homo sapiens; assay: AUC (0 to infinity) in healthy human plasma assessed as (S,S)-hydroxybupropion level at 150 mg, po co-treated with ritonavir 200 mg tid for 1 day, 300 mg bid for next 2 days measured after 48 hrs by high-performance liquid chromatography-tandem mass spectrometry; assay type: ADME, organism-based; parameters: dose 150 mg, time infinity, route oral; details: in vivo
[16] = system: Homo sapiens; assay: AUC (0 to infinity) in healthy human plasma assessed as (S,S)-hydroxybupropion level at 150 mg, po co-treated with ritonavir 200 mg tid for 1 day, 300 mg bid for next 6 days, 400 mg bid upto 17 day of study measured after 48 hrs by high-performance liquid chromatography-tandem mass spectrometry; assay type: ADME, organism-based; parameters: dose 150 mg, time infinity, route oral; details: in vivo
[17] = AUC in healthy human plasma at 400 mg, po bid for 2 weeks; assay type: ADME, organism-based
[18] = AUC in healthy human plasma at 100 mg, po bid for 2 weeks; assay type: ADME, organism-based
[19] = Apparent renal clearance in human at 150 mg, po co-treated with ritonavir 200 mg tid for 1 day, 300 mg bid for next 2 days using 0-48 hrs urine sample; assay type: ADME, organism-based; details: read-out: CL_renal
[20] = Apparent renal clearance in human at 150 mg, po co-treated with ritonavir 200 mg tid for 1 day, 300 mg bid for next 6 days, 400 mg bid upto 17 day of study using 0-48 hrs urine sample; assay type: ADME, organism-based; details: read-out: CL_renal
[21] = system: Homo sapiens; assay: Apparent renal clearance in human assessed as Hydroxybupropion at 150 mg, po co-treated with ritonavir 200 mg tid for 1 day, 300 mg bid for next 2 days using 0-48 hrs urine sample; assay type: ADME, organism-based; details: in vivo
[22] = system: Homo sapiens; assay: Apparent renal clearance in human assessed as Hydroxybupropion at 150 mg, po co-treated with ritonavir 200 mg tid for 1 day, 300 mg bid for next 6 days, 400 mg bid upto 17 day of study using 0-48 hrs urine sample; assay type: ADME, organism-based; details: in vivo
[23] = system: Homo sapiens; assay: Apparent renal clearance in human assessed as (R,R)-Hydroxybupropion at 150 mg, po co-treated with ritonavir 200 mg tid for 1 day, 300 mg bid for next 2 days using 0-48 hrs urine sample by high-performance liquid chromatography-tandem mass spectrometry; assay type: ADME, organism-based; details: in vivo
[24] = system: Homo sapiens; assay: Apparent renal clearance in human assessed as (R,R)-Hydroxybupropion at 150 mg, po co-treated with ritonavir 200 mg tid for 1 day, 300 mg bid for next 6 days, 400 mg bid upto 17 day of study using 0-48 hrs urine sample by high-performance liquid chromatography-tandem mass spectrometry; assay type: ADME, organism-based; details: in vivo
[25] = system: Homo sapiens; assay: Apparent renal clearance in human assessed as (S,S)-Hydroxybupropion at 150 mg, po co-treated with ritonavir 200 mg tid for 1 day, 300 mg bid for next 2 days using 0-48 hrs urine sample by high-performance liquid chromatography-tandem mass spectrometry; assay type: ADME, organism-based; details: in vivo
[26] = system: Homo sapiens; assay: Apparent renal clearance in human assessed as (S,S)-Hydroxybupropion at 150 mg, po co-treated with ritonavir 200 mg tid for 1 day, 300 mg bid for next 6 days, 400 mg bid upto 17 day of study using 0-48 hrs urine sample by high-performance liquid chromatography-tandem mass spectrometry; assay type: ADME, organism-based; details: in vivo
[27] = Apparent clearance with respect to oral bioavailability in human at 150 mg, po co-treated with ritonavir 200 mg tid for 1 day, 300 mg bid for next 6 days, 400 mg bid upto 17 day of study measured after 48 hrs; assay type: ADME, organism-based; details: in vivo
[28] = AUC (0 to infinity) in healthy human plasma at 150 mg, po co-treated with ritonavir 200 mg tid for 1 day, 300 mg bid for next 6 days, 400 mg bid upto 17 day of study measured after 48 hrs; assay type: ADME, organism-based; parameters: dose 150 mg, time infinity, route oral
[29] = Apparent clearance with respect to oral bioavailability in human at 150 mg, po co-treated with ritonavir 200 mg tid for 1 day, 300 mg bid for next 2 days measured after 48 hrs; assay type: ADME, organism-based; details: in vivo
[30] = AUC (0 to infinity) in healthy human plasma at 150 mg, po co-treated with ritonavir 200 mg tid for 1 day, 300 mg bid for next 2 days measured after 48 hrs; assay type: ADME, organism-based; parameters: dose 150 mg, route oral, time infinity
[31] = system: Homo sapiens; assay: Tmax in healthy human plasma assessed as (S,S)-hydroxybupropion level at 150 mg, po co-treated with ritonavir 200 mg tid for 1 day, 300 mg bid for next 2 days measured after 48 hrs by high-performance liquid chromatography-tandem mass spectrometry; assay type: ADME, organism-based; details: in vivo
[32] = system: Homo sapiens; assay: as §1, with “Tmax in healthy human plasma assessed as (S,S)-hydroxybupropion” for “(R,R)-hydroxybupropion”; assay type: ADME, organism-based; details: in vivo
[33] = clinical; details: human, plasma, po
[34] = clinical; details: human, plasma, po; remark: listed apart in the source
[35] = clinical; details: human, plasma, po; remark: listed apart in the source
[36] = clinical; details: human, plasma, po; remark: listed apart in the source

In the case of CC(NC(C)(C)C)C(=O)c1cccc(Cl)c1 (racemic) [BUPROPION], the AUC [1] is reported as 11330 ng·h/mL, the AUC [2] is reported as 7560 ng·h/mL and the Tmax [3] is reported as 3.6 h. For the same compound, the Tmax [4] was 3.4 h, the AUC [5] was 8470 ng·h/mL and the AUC [6] was 6100 ng·h/mL. For the same compound, the AUC [7] was 8120 ng·h/mL, the AUC [8] was 5829 ng·h/mL and the AUC [9] was 10950 ng·h/mL. It also gave an AUC [10] of 7330 ng·h/mL, a Tmax [11] of 3.8 h and a Tmax [12] of 3.5 h. For the same compound, the AUC [13] was 356 ng·h/mL, the AUC [14] was 274 ng·h/mL and the AUC [15] was 404 ng·h/mL. The AUC [16] was 303 ng·h/mL, the AUC at 336 h [17] was 57 ng·h/mL and the AUC at 336 h [18] was 50 ng·h/mL. It also gave a CL renal [19] of 20 mL/min, a CL renal [20] of 21 mL/min and a CL_renal [21] of 143 mL/min. It also gave a CL_renal [22] of 183 mL/min, a CL_renal [23] of 172 mL/min and a CL_renal [24] of 217 mL/min. It also gave a CL_renal [25] of 96 mL/min, a CL_renal [26] of 134 mL/min and a CL/F [27] of 3240 mL/min. It also gave an AUC(0-inf) [28] of 1030 ng·h/mL, a CL/F [29] of 2470 mL/min and an AUC(0-inf) [30] of 1290 ng·h/mL. The Tmax [31] was 1.7 h, the Tmax [32] was 1.5 h and the half-life [33] was 17.8 h. For the same compound, the half-life [34] was 16.8 h, the Cmax [35] was 267 ng/mL and the Cmax [36] was 345 ng/mL.
